The values below come from patent US20260174875A1 (Novo Nordisk A/S, priority 2023, published 2026).

What all share (assay type): cell-based
The target in test [1] is T1, human amylin receptor (hAMYR3) (Homo sapiens, UniProt O60896+P30988).
T1 construct: host or cells: BHK cells (Hollex-1 line expressing hCTR(a) and CRE-Luc), further transfected with human RAMP3
In words: Amylin receptor assay, method B (CRE-luciferase reporter, BHK cells). Here is the method:
To assess how the activation of the receptors is potentially influenced by the presence of human serum albumin (HSA), the in vitro assays were performed in the absence of HSA and presence of 1% (w/v) HSA.
It is thus possible to measure hAMYR3 activity using a CRE-luciferase reporter gene introduced into Baby Hamster Kidney (BHK) cells co-expressing the hAMYR3.
The cell line was further transfected with human receptor modifying protein 3 (RAMP3) using standard methods.
After centrifugation, the cell pellet was resuspended and diluted to approximately 2.5-4.0×10^6 (2.5E+6 to 4.0E+6) cells/mL in Recovery™ Cell Culture Freezing Medium (Gibco, 12648-010). Cells were aliquoted and stored at −180° C. until use.
The assay buffer consisted of DMEM without phenol red (Gibco, 11880-028) supplemented with 1× GlutaMAX (Gibco, 35050-038), 10 mM HEPES (Gibco, 15630-056) and 1% (w/v) ovalbumin (Sigma, A5503) either with or without 0.1% (v/v) Pluronic F-68 (Gibco, 24040-032) and either with or without HSA (Sigma, A9511).
To perform the assay, hAMYR3 BHK Cre-Luc cells were thawed, washed once in PBS (Gibco 14190-094) and seeded in 40 μL growth medium in a white 384-well culture plate (PerkinElmer/Revvity, 6007688) at a cell density of 4.0×10^3 (4.0E+3) cells/well the day before the experiment. The plate was incubated over night at 37° C. in 5% CO2. […] Serial dilutions were then mixed in a new 96-well plate with equal volume (1:1:1 ratio) of assay buffer and either assay buffer without or with 3% HSA (Sigma, A-9511). Twenty microliters of the solution mix were transferred to the cells which previously were washed once with PBS (Gibco 14190-094). After a short centrifugation, the assay plates were incubated for 3 hours at 37° C. in 5% CO2 and let to equilibrated at room temperature for 10 minutes before the addition of 30 μL steadylite Plus™ PerkinElmer/Revvity, 6066759) per well. Plates were sealed and incubated at room temperature with gentle shaking for 30 minutes while protected from light. Luminescence was detected on a luminescence plate reader e.g., a Synergy 2 (BioTek).
On the technique in general: Reporter assays use an easily measured gene product as a stand-in for the process of interest.

Test [2] addresses T2, human GIP receptor (hGIPR) (Homo sapiens, UniProt P48546).
T2 construct: expressed in transfected cells
T2 sequence (P48546 22-466): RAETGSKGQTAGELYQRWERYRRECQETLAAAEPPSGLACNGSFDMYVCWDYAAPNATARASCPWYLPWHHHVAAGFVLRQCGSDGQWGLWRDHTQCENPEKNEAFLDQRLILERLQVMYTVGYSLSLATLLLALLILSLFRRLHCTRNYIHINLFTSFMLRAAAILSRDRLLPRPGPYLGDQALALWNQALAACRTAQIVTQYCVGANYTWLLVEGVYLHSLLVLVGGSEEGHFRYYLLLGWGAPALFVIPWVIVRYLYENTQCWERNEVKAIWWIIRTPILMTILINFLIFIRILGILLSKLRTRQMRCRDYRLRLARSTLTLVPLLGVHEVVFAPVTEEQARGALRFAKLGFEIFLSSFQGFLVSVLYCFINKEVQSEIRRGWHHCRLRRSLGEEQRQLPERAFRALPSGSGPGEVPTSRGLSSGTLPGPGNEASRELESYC
In words: GIP receptor assay, method B (CRE-luciferase reporter, BHK cells, 384-well).
Excerpt: Activation of the human GIP receptor leads to increased intra-cellular concentrations of cyclic AMP (cAMP) and the consequent transcription activation from promoters containing multiple copies of the cAMP response element (CRE). It is thus possible to measure GIP receptor activity using a CRE-luciferase reporter gene introduced into Baby Hamster Kidney (BHK) cells co-expressing the human GIP receptor.
Cells at about 80-90% confluency were washed once with PBS (Gibco 14190-094) and detached from the cell flasks with Versene (Gibco, 15040-066). After centrifugation, the cells were counted, resuspended and diluted to approximately 1.5-3.0×10^6 (1.5E+6 to 3.0E+6) cells/mL in Recovery Cell Culture Freezing Medium (Gibco, 12648-010) and stored at −180° C. in suitable aliquots until use.
The assay buffer consisted of DMEM without phenol red (Gibco, 11880-028) supplemented with 1× GlutaMAX (Gibco, 35050-038), 10 mM HEPES (Gibco, 15630-056), 1% (w/v) ovalbumin (Sigma, A5503) and 0.1% (v/v) Pluronic F-68 (Gibco, 24040-032) either with HSA or without HSA (Sigma, A9511).
Serial dilutions were transferred to a 384-well assay plate (PerkinElmer/Revvity, 6007688) and mixed with an equal volume (10 μL) of assay buffer without or with 3% HSA (Sigma, A-9511). Frozen stocks of hGIPR BHK Cre-Luc cells were thawed in a 37° C. water bath, washed once in PBS (Gibco 14190-094), diluted to 1.5×10^5 (1.5E+5) cells/mL in assay buffer (without HSA) and added (10 μL) to each well of the 384-well assay plate. After a short centrifugation, the assay plates were incubated for 3 hours at 37° C. in 5% CO2 and let to equilibrated at room temperature for 10 minutes before the addition of 30 μL steadylite Plus™ (PerkinElmer/Revvity, 6066759) per well. Plates were sealed and incubated at room temperature with gentle shaking for 30 minutes while protected from light. Luminescence was detected on a luminescence plate reader e.g. a Synergy 2 (BioTek).

Test [3] has as its target T2, human GIP receptor (hGIPR). In words: GIP receptor assay, method A (CRE-luciferase reporter, BHK cells). The note with it: method A, absence of HSA; read-out: hGIPR Potency, no HSA, EC50. In outline:
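BHK cells co-expressing hGIPR and a CRE-luciferase reporter, plated 21-23 h before assay, stimulated 3 h at 37 °C with compounds (7-point 10-fold titration, duplicates) in ovalbumin-containing DMEM buffer with or without 1% HSA final. Luminescence read; EC50 (pM) from four-parameter logistic fit with shared Hill slope.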

The target of test [4] is T3, human GLP-1 receptor (hGLP-1R) (Homo sapiens, UniProt P43220).
T3 construct: expressed in transfected cells
T3 sequence (P43220 24-463): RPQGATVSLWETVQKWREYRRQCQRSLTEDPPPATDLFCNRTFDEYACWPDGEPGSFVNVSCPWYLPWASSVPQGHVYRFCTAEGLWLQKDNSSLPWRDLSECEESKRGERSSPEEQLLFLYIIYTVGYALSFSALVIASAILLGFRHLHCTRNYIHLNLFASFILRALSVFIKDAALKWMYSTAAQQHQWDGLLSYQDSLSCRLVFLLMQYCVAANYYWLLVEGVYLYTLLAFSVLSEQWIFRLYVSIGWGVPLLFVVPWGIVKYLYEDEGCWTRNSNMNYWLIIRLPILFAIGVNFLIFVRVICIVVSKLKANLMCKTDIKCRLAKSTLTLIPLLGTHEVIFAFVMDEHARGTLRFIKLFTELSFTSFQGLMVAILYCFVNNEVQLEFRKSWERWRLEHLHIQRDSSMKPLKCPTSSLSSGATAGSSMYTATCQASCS
In words: GLP-1 receptor assay, method A (CRE-luciferase reporter, BHK cells). The note with it: method A, absence of HSA; read-out: hGLP-1R Potency, no HSA, EC50. The procedure, abridged:
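BHK cells expressing hGLP-1R with CRE-luciferase reporter, stimulated 3 h at 37 °C, 5% CO2, in phenol-red-free DMEM with 10 mM HEPES, 1% ovalbumin, 0.1% Pluronic F-68, without or with 1% (w/v) HSA. Receptor activation read as luminescence after 30 min with steadylite Plus.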

Test [5] addresses T1, human amylin receptor (hAMYR3). In words: Amylin receptor assay, method A (CRE-luciferase reporter, BHK cells). As to conditions: method A, absence of HSA; read-out: hAMYR3 Potency, no HSA, EC50.
In test [6] the target is T3, human GLP-1 receptor (hGLP-1R). In words: GLP-1 receptor assay, method B (CRE-luciferase reporter, BHK cells, 384-well).
Setting [7] is: hAMYR3 Potency, 1% HSA, EC50, methods B, in the presence of 1% HSA.
[8] abbreviates: hGIPR Potency, 1% HSA, EC50, methods B, in the presence of 1% HSA.
[9] abbreviates: hGLP-1R Potency, 1% HSA, EC50, methods B, in the presence of 1% HSA.

What is called EC50 is the concentration that produces a half-maximal response.

Numbered stars: 1 amine (or outer) side, 2 acyl side, 3 side chain; on linkers, the order of the positions; unused ones are H or OH. Square brackets hold non-standard residues; d marks the D form. Side chains are listed from the residue outwards. * marks the point of attachment. C16 diacid = O=C(O)CCCCCCCCCCCCCCC(=O)*; γGlu = O=C(O)[C@H](CCC(=O)[*:2])N[*:1]; AEEA = NCCOCCOCC(=O)O; Aib = CC(C)(N)C(=O)O

T1 sequence (P30988 25-474): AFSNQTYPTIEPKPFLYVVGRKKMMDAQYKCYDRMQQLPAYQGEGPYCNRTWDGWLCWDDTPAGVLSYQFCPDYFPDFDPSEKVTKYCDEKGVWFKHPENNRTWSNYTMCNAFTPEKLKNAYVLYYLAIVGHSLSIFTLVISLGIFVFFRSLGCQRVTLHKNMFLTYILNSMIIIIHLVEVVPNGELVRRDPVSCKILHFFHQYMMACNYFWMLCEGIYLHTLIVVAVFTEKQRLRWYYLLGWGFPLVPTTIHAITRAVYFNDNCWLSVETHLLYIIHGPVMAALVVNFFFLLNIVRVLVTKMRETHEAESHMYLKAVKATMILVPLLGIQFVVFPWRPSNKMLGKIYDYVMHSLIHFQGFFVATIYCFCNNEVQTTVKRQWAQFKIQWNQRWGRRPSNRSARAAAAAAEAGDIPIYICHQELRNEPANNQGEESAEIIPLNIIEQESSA
T1 sequence (O60896 24-148): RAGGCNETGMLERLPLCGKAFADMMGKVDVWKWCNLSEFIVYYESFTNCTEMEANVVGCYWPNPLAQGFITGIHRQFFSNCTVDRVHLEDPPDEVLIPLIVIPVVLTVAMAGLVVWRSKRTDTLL

Take “Y[Aib]EGTFTSDYSILLEEQAAREFIEWLLAGGPSK([AEEA-AEEA-γGlu-C16 diacid])GEASELSTAALGRLSAELHRLATLPRTETGSGSP-NH2 [Compound 18]”: the EC50 in test [1] (setting [7]) was 1300 pM; in test [2] (setting [8]), 20.1 pM; in test [3], 7.25 pM; in test [4], 52.8 pM; in test [5], 3.93 pM; in test [6] (setting [9]), 134 pM.
In the case of `CC[C@H](C)[C@H](NC(=O)[C@H](CCC(=O)O)NC(=O)[C@H](CCC(=O)O)NC(=O)[C@H](CC(C)C)NC(=O)[C@H](CC(C)C)NC(=O)[C@@H](NC(=O)[C@H](CO)NC(=O)[C@H](Cc1ccc(O)cc1)NC(=O)[C@H](CC(=O)O)NC(=O)[C@H](CO)NC(=O)[C@@H](NC(=O)[C@H](Cc1ccccc1)NC(=O)[C@@H](NC(=O)CNC(=O)[C@H](CCC(=O)O)NC(=O)C(C)(C)NC(=O)[C@@H](N)Cc1ccc(O)cc1)[C@@H](C)O)[C@@H](C)O)[C@@H](C)CC)C(=O)N[C@@H](C)C(=O)N[C@@H](C)C(=O)N[C@@H](CCCNC(=N)N)C(=O)N[C@@H](CCC(=O)O)C(=O)N[C@@H](Cc1ccccc1)C(=O)N[C@H](C(=O)N[C@@H](CCC(=O)O)C(=O)N[C@@H](Cc1c[nH]c2ccccc12)C(=O)N[C@@H](CC(C)C)C(=O)N[C@@H](CC(C)C)C(=O)N[C@@H](C)C(=O)NCC(=O)NCC(=O)N1CCC[C@H]1C(=O)N[C@@H](CO)C(=O)N[C@@H](CO)C(=O)NCC(=O)N[C@@H](C)C(=O)NCC(=O)N[C@@H](CCC(N)=O)C(=O)N[C@@H](C)C(=O)N[C@@H](CCC(=O)O)C(=O)NCC(=O)N[C@@H](CCC(N)=O)C(=O)N[C@@H](C)C(=O)N1CCC[C@H]1C(=O)NCC(=O)N[C@@H](C)C(=O)N[C@@H](CO)C(=O)N[C@@H](Cc1c[nH]cn1)C(=O)N[C@@H](CC(C)C)C(=O)N[C@@H](CO)C(=O)N[C@H](C(=O)N[C@@H](C)C(=O)N[C@@H](CCC(N)=O)C(=O)N[C@H](C(=O)N[C@@H](CCC(N)=O)C(=O)N[C@@H](CCCNC(=N)N)C(=O)N[C@@H](CC(C)C)C(=O)N[C@@H](CO)C(=O)N[C@@H](C)C(=O)N[C@@H](CCC(=O)O)C(=O)N[C@@H](CC(C)C)C(=O)N[C@@H](Cc1c[nH]cn1)C(=O)N[C@@H](CCCCNC(=O)COCCOCCNC(=O)COCCOCCNC(=O)CC[C@H](NC(=O)CCCCCCCCCCCCCCCCCCC(=O)O)C(=O)O)C(=O)N[C@@H](CC(C)C)C(=O)N[C@@H](C)C(=O)N[C@H](C(=O)N[C@@H](CC(C)C)C(=O)N1CCC[C@H]1C(=O)N[C@@H](CCCNC(=N)N)C(=O)N[C@H](C(=O)N[C@@H](CCC(=O)O)C(=O)N[C@H](C(=O)NCC(=O)N[C@@H](CO)C(=O)NCC(=O)N[C@@H](CO)C(=O)N1CCC[C@H]1C(N)=O)[C@@H](C)O)[C@@H](C)O)[C@@H](C)O)[C@@H](C)O)[C@@H](C)O)[C@@H](C)CC` [Compound 150], the EC50 was found to be 961 pM in test [1] (setting [7]); 7.61 pM in test [1] (method B, absence of HSA, read-out: hAMYR3 Potency, no HSA, EC50); 10.7 pM in test [2] (setting [8]); 2.99 pM in test [2] (method B, absence of HSA, read-out: hGIPR Potency, no HSA, EC50); 65.3 pM in test [6] (setting [9]); 26.2 pM in test [6] (method B, absence of HSA, read-out: hGLP-1R Potency, no HSA, EC50).
